The values below come from US9962341B2, “Active pharmaceutical ingredient (API) comprising cannabinoids for use in the treatment of cancer” (GW Pharma Limited, priority 2014, dated 2018).

This assay concerns WM115. Kind of assay: Cell viability (CellTiter-Blue, 72 h), WM115 melanoma cells. In kind it is cell-based. To be noted: Homo sapiens, WM-115, WM115, 1% FBS. How it is done:
The following cell lines were tested in this example: Lung Cancer (A549, NCI-H460); Pancreatic cancer (PANC1, Mia-Pa-Ca-2); Melanoma (WM115, A375); Ovarian cancer (OVCAR3, SKOV3); Gastric cancer (MKN45, HGC-27); Renal cancer (ACHN) and Bladder Cancer (RT112).
Each tumour cell line was maintained in vitro in RPMI 1640+10% heat inactivated FBS and 2 mM L-glutamine (growth media) at 37° C. in 5% CO2 and humidified conditions. The cells were harvested, washed, re-suspended into growth medium and counted. The cells were re-suspended into assay media (RPMI 1640+5% heat inactivated FBS+ and 2 mM L-glutamine) at 4×10^4 cells/ml (dependent upon cell type) and plated into the middle 240 wells of 384 well tissue culture plates (Corning CellBind, black-wall plates) 25 μl/well aliquots; 50 μl of growth media was aliquoted into the outer wells. There were 3 plates for each cell line.
The plates were incubated overnight at 37° C., in 5% humidified CO2.
The phytocannabinoid test compounds were prepared in 100% DMSO vehicle at a stock concentration of 20 and 40 mM.
Starting with the 20 mM stock in DMSO, this was serially diluted (2 fold) in DMSO in a 96-well plate, to 20 (no dilution), 10, 5, 2.5, 1.25, 0.625, 0.315, 0.157 and […]. Following this, 10 ul of each compound dilution was diluted into 990 ul of 1% (v/v) FBS media in a deep well block making the final concentrations of 200, 100, 50, 25, 12.5, 6.25, 3.125, 1.56 and 0.79 μM (2× final assay concentrations and 1% DMSO).
An equal volume of each cannabinoid in the combination (stock concentration 40 mM) was mixed together to make a stock of 20 mM of each cannabinoid in DMSO. This was serially diluted (2 fold) in DMSO in a 96-well plate, to 20 (no dilution), 10, 5, 2.5, 1.25, 0.625, 0.315, 0.157 and […]. Following this, 10 ul of each combination dilution was diluted into 990 ul of 1% (v/v) FBS media in a deep well block making the final concentrations of 200, 100, 50, 25, 12.5, 6.25, 3.125, 1.56 and 0.79 μM (2× final assay concentrations and 1% DMSO).
Cisplatin (stock of 1 mg/ml=3.33 mM in water) was diluted in 1% FBS media to give a stock concentration of 1 mM. This was then diluted in 1% FBS media from the stock solution to 200 μM, then serially diluted (3-fold) in 1% FBS media to 200 (no dilution), 66.66, 22.22, 7.41, 2.47, 0.82, 0.27, 0.09, 0.03 μM (2× final assay concentrations; no DMSO).
The plates were incubated for 72 h at 37° C. in 5% humidified CO2. To develop the plates, at 72 h, 10 μl of CellTiter-Blue™ reagent was added to each test/blank well.
The plates were incubated at 37° C., 5% humidified CO2. Fluorescence was measured using a Flex II Station plate reader (570 nm excitation wavelength, 600 nm emission wavelength, 590 nm cut-off) after 3 h.
The phytocannabinoid compounds CBD, CBGA, CBG, CBDA, THCV and THC were tested on a panel of lung (A549, NCI-H460), pancreatic (PANC1, Mia-Pa-Ca-2), melanoma (WM115, A375), ovarian (OVCAR3, SKOV3), gastric (MKN45, HGC-27), renal (ACHN) and bladder (RT112) cancer cell lines according to the protocol for 72 h in media containing 1% FBS.
The IC50 values for each phytocannabinoid and combination of CBD with the other phytocannabinoids was calculated for each cell line. The raw data values expressed in relative fluorescent units were normalised to the vehicle for each individual plate and any reduction in fluorescence indicated a decrease in viability.
This calculation was as described in Example 1 above.
(The colour change of resazurin is a common sign of viable cells or microbes.)

[1] abbreviates: 72 h, read-out: Cell line IC50 value.
Setting [2] is: read-out: Dm (median effect dose).

Read-outs that look alike come from different tables or passages of the source.

`CCCCCc1cc(O)c(C/C=C(\C)CCC=C(C)C)c(O)c1` [CBG, Cannabigerol]: the IC50 was 3.1 µM under setting [1] and 3.1 µM under setting [2].
`C=C(C)[C@@H]1CCC(C)=C[C@H]1c1c(O)cc(CCCCC)c(C(=O)O)c1O` [CBDA, Cannabidiolic acid]: the IC50 is, setting by setting: under setting [1], 2.1 µM; under setting [2], 14.7 µM.
As to `C=C(C)[C@@H]1CCC(C)=C[C@H]1c1c(O)cc(CCCCC)cc1O` [CBD, Cannabidiol], the IC50 by setting is: under setting [1], 2.4 µM; under setting [2], 2.77 µM.
With `CCCCCc1cc(O)c(C/C=C(\C)CCC=C(C)C)c(O)c1C(=O)O` [CBGA, Cannabigerolic acid], the IC50 reads like this: under setting [1], 1.5 µM; under setting [2], 12.9 µM.
In the same order, the values of `CCCc1cc(O)c2c(c1)OC(C)(C)[C@@H]1CCC(C)=C[C@@H]21` [THCV, Tetrahydrocannabivarin] are 6.5 µM and 6.43 µM.
In the same order, the values of `CCCCCc1cc(O)c2c(c1)OC(C)(C)[C@@H]1CCC(C)=C[C@@H]21` [THC, Tetrahydrocannabinol, reference compound] are 2.9 µM and 3.17 µM.
